Assay results as given in publication PMC7235175, “Analysis of Pigment-Dispersing Factor Neuropeptides and Their Receptor in a Velvet Worm” (Frontiers in Endocrinology, 2020).
“Also recorded” adds a separate entry of the source.

System: PDF receptor Er-PDFR of E. rowelli
Experiment: BRET assay: cAMP response (Epac-L sensor) of HEK293T cells transfected with Er-PDFR
Format: cell-based, Euperipatoides rowelli
Details: for activation of Er-PDFR (cAMP response) / potency of PDF-II relative to PDF-I as activating ligand: HEK293T, Epac-L BRET, n = 8; for activation of Er-PDFR (cAMP response): Rm-MIP7 as control (unrelated peptide); for potency of PDF-II relative to PDF-I as activating ligand: comparison of activation by the two peptides
Protocol: HEK293T cells were seeded on 96-well Nunc plates (Thermo Fisher Scientific, Waltham, MA, USA) at a density of 2 ×10^4 cells/well and cultured in DMEM high glucose (Sigma-Aldrich Chemie GmbH, Munich, Germany) supplemented with 10% fetal bovine serum and 5% CO2 at 37°C. After 24 h, cells were transfected using polyethyleneimine (25 kDa PEI, linear; Polysciences Europe GmbH, Hirschberg an der Bergstrasse, Germany) with GFP2-hEpac1E157-P881-Rluc8 [Epac-L; modified from ([83]–[85])] and pcDNA3.1-ErPDFR-3K10 in a 1:1 ratio (100 ng total DNA/well). Cells were washed with HBSS (Thermo Fisher Scientific) 2 days after transfection and stimulated with different concentrations of synthetic PDF peptides (10^−11 to 10^−5 M final concentration) together with the substrate coelenterazine 400A (“DeepBlueC”; BIOTREND Chemikalien GmbH, Cologne, Germany) at a final concentration of 5 μM in a total volume of 50 μL HBSS. Control experiments were conducted with cells expressing Epac-L alone, stimulation without PDF peptides, stimulation using an unrelated peptide (myoinhibitory peptide 7 from the cockroach Rhyparobia maderae), and stimulation with forskolin (50 μM final concentration; Sigma-Aldrich Chemie GmbH) + IBMX (100 μM final concentration; Sigma-Aldrich Chemie GmbH), respectively. The raw luminescence was measured immediately after stimulation at wavelengths of 410 ± 80 nm for the donor and 515 ± 30 nm for the acceptor in eight biological replicates for each tested PDF peptide concentration (n = 8) using a POLARstar Omega microplate reader (BMG Labtech, Cary, NC, USA). Their ratios [emission (410 nm)/emission (515 nm)] were box plotted as relative luminescence against the respective PDF concentration in dose response curves.

Substance | activation threshold (minimum concentration required for PDFR stimulation) (HEK293T cells co-transfected with Epac-L and pcDNA3.1-ErPDFR-3K10 (1:1), peptide 10^−11 to 10^−5 M, coelenterazine 400A 5 μM in HBSS, emission 410/515 nm read immediately after stimulation, n = 8 biological replicates) | activation of Er-PDFR (cAMP response) (peptide 10^−11 to 10^−5 M) | potency of PDF-II relative to PDF-I as activating ligand | potency of PDF-II relative to PDF-I as activating ligand (listed as PDF-II)
CNAELINSLLGLPKMMNDA-NH2 [Er-PDF-I, HPLC-purified synthetic pigment-dispersing factor peptide I of Euperipatoides rowelli] | 10^−6 M | activated by both PDF peptides of E. rowelli, Er-PDF-I and Er-PDF-II, in a dose-dependent manner; also recorded: activated by Er-PDF-I and Er-PDF-II in a distinct and dose-dependent manner |  | 
CNAELINSLLNLPQKLQEA-NH2 [Er-PDF-II, HPLC-purified synthetic pigment-dispersing factor peptide II of Euperipatoides rowelli] |  | activated by both PDF peptides of E. rowelli, Er-PDF-I and Er-PDF-II, in a dose-dependent manner; also recorded: activated by Er-PDF-I and Er-PDF-II in a distinct and dose-dependent manner | one order of magnitude more potent than Er-PDF-I | tenfold higher potency than PDF-I
